From patent publication US10934298B2, “Substituted pyrazolo[1,5-a]pyrimidines for the treatment of medical disorders” (BIAL—BioTech Investments, Inc., priority 2016, dated 2021)

Molecular target: T1, glucocerebrosidase (Gcase) (Homo sapiens, UniProt P04062)
T1 construct: micellar solution containing 10 nM GCase and 100 nM saposin C
T1 sequence (P04062 40-536): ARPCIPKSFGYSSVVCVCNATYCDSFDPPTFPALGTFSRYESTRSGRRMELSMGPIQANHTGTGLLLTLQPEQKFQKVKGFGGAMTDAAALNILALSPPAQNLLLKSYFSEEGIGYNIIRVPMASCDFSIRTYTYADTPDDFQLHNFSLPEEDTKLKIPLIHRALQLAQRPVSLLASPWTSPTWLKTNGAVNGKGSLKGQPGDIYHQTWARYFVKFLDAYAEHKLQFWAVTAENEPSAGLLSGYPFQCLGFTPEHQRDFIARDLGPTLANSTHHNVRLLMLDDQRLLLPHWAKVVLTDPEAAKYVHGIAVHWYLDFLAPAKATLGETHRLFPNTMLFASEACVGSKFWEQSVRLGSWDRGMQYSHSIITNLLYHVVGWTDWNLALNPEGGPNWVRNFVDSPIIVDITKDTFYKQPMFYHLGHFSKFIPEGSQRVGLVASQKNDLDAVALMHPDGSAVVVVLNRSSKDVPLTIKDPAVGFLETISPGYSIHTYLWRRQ
Experiment: Glucocerebrosidase (Gcase) activation assay with 4-methylumbelliferyl-beta-D-glucopyranoside substrate, saposin C and phosphatidylserine/triton micelles, fluorescence readout
Assay type: biochemical
Outline: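 Readout is endpoint fluorescence (ex 365, em 440 nm) after glycine pH 12.5 stop of a 15-min room-temperature reaction. Enzyme mix: GCase 10 nM plus saposin C 100 nM in 0.37 mol % PS/0.32 mM triton micelles, pH 4.7, compound pre-incubated 30 min; substrate solution 2 mM before 1:1 mixing. Tested at 1.0/0.1 μM, then 3-fold, 8-point series up to 5 μM.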

Row | Percent Gcase Activation, 0.1 μM Test Compound (test compound at 0.1 μM) | Percent Gcase Activation, 1 μM Test Compound (test compound at 1.0 μM) | Percent Gcase Activation, 0.1 μM Test Compound (0.1 μM test compound) | Percent Gcase Activation, 1 μM Test Compound (1 μM test compound) | Compound | other results
1 |  |  |  |  | CCc1cc(-c2ccccn2)nc2c(C(=O)NC(C)C(F)(F)F)cnn12 (centres unmarked) [III-52] | Percent Gcase Activation, 0.1 μM Test Compound (0.1 μM test compound, Table 3A): * (less than 10% Gcase activation); Percent Gcase Activation, 1 μM Test Compound (1 μM test compound, Table 3A): +++ (Gcase activation greater than 60%)
2 |  |  |  |  | Cc1cc(-c2cccc(C(N)=O)c2)nc2c(C(=O)NC(C3CC3)C(F)(F)F)cnn12 (centres unmarked) [III-73] | Percent Gcase Activation, 0.1 μM Test Compound (0.1 μM test compound, Table 3A): *** (greater than 20% Gcase activation); Percent Gcase Activation, 1 μM Test Compound (1 μM test compound, Table 3A): +++ (Gcase activation greater than 60%)
3 |  |  | * (less than 10% Gcase activation) | + (less than 30% Gcase activation) | Cc1cc(N2CCN(c3ccccc3)C2=O)nc2c(C(=O)N[C@H](C)C(F)(F)F)cnn12 [III-329] | 
4 | *** (greater than 20% Gcase activation) | +++ (Gcase activation greater than 60%) |  |  | Cc1cc(-c2ccc(F)cn2)nc2c(C(=O)NC(C3CC3)C(F)(F)F)cnn12 (centres unmarked) [III-204] | 
5 |  |  | *** (greater than 20% Gcase activation) | +++ (Gcase activation greater than 60%) | Cc1cnoc1-c1cc(C)n2ncc(C(=O)N[C@H](C3CC3)C(F)(F)F)c2n1 [III-344] | 
6 | *** (greater than 20% Gcase activation) | +++ (Gcase activation greater than 60%) |  |  | Cc1cc(N2CCCC(F)(F)C2)nc2c(C(=O)N[C@H](C3CC3)C(F)(F)F)cnn12 [III-94] | 
7 |  |  | *** (greater than 20% Gcase activation) | +++ (Gcase activation greater than 60%) | Cc1cnc(F)c(-c2cc(C)n3ncc(C(=O)N[C@H](C4CC4)C(F)(F)F)c3n2)c1 [III-374] | 
8 |  |  | *** (greater than 20% Gcase activation) | +++ (Gcase activation greater than 60%) | Cc1cc(-c2cc(C)n3ncc(C(=O)N[C@H](C4CC4)C(F)(F)F)c3n2)no1 [III-341] | 
9 | *** (greater than 20% Gcase activation) | +++ (Gcase activation greater than 60%) |  |  | Cc1ncc(-c2cc(C)n3ncc(C(=O)N[C@H](C4CC4)C(F)(F)F)c3n2)o1 [III-247] | 
10 |  |  |  |  | Cc1cc(NC2CC2)nc2c(C(=O)NC(C3CC3)C(F)(F)F)cnn12 (centres unmarked) [III-44] | Percent Gcase Activation, 0.1 μM Test Compound (0.1 μM test compound, Table 3A): *** (greater than 20% Gcase activation); Percent Gcase Activation, 1 μM Test Compound (1 μM test compound, Table 3A): +++ (Gcase activation greater than 60%)
11 | *** (greater than 20% Gcase activation) | +++ (Gcase activation greater than 60%) |  |  | COc1cc(F)ccc1-c1cc(C)n2ncc(C(=O)NC(C)C(F)(F)F)c2n1 (centres unmarked) [III-150] | 
12 | *** (greater than 20% Gcase activation) | +++ (Gcase activation greater than 60%) |  |  | Cc1cc(-c2nccs2)nc2c(C(=O)NC(C3CC3)C(F)(F)F)cnn12 (centres unmarked) [III-209] | 
13 | * (less than 10% Gcase activation) | + (less than 30% Gcase activation) |  |  | Cc1cc(-c2cccc(-c3ncc[nH]3)c2)nc2c(C(=O)NC(C3CC3)C(F)(F)F)cnn12 (centres unmarked) [III-102] | 
14 |  |  | *** (greater than 20% Gcase activation) | +++ (Gcase activation greater than 60%) | Cc1cc(-c2cccc(-c3ncco3)c2)nc2c(C(=O)NC(C3CC3)C(F)(F)F)cnn12 (centres unmarked) [III-416] | 
15 | *** (greater than 20% Gcase activation) | +++ (Gcase activation greater than 60%) |  |  | Cc1cc(-c2ccccc2)nc2c(C(=O)N[C@@H](C)C3CC3)cnn12 [III-136] | 
16 |  |  |  |  | Cc1cc(-c2ccc(F)cc2)nc2c(C(=O)N[C@@H](C)C3CC3)cnn12 [III-7] | Percent Gcase Activation, 0.1 μM Test Compound (0.1 μM test compound, Table 3A): ** (Gcase activation in the range of 10% up to 20%); Percent Gcase Activation, 1 μM Test Compound (1 μM test compound, Table 3A): +++ (Gcase activation greater than 60%)
17 |  |  | *** (greater than 20% Gcase activation) | +++ (Gcase activation greater than 60%) | CCCCO[C@H]1CC[C@H](NC(=O)c2cnn3c(C)cc(-c4cncc(Cl)c4)nc23)CC1 [III-293] | 
18 |  |  | *** (greater than 20% Gcase activation) | +++ (Gcase activation greater than 60%) | Cc1cccc(-c2cc(C)n3ncc(C(=O)N[C@@H](C4CC4)C(F)(F)F)c3n2)n1 [III-382] | 
19 |  |  |  |  | COCc1cc(-c2ccc(F)cc2)nc2c(C(=O)NC(C)(C)C3CC3)cnn12 [III-47] | Percent Gcase Activation, 0.1 μM Test Compound (0.1 μM test compound, Table 3A): ** (Gcase activation in the range of 10% up to 20%); Percent Gcase Activation, 1 μM Test Compound (1 μM test compound, Table 3A): +++ (Gcase activation greater than 60%)
20 |  |  | *** (greater than 20% Gcase activation) | +++ (Gcase activation greater than 60%) | Cc1cc(N2C[C@@H](c3ccccc3)OC2=O)nc2c(C(=O)NC(C3CC3)C(F)(F)F)cnn12 (some centres unmarked) [III-315] | 
21 | *** (greater than 20% Gcase activation) | +++ (Gcase activation greater than 60%) |  |  | Cc1cc(C)n2ncc(C(=O)NC(c3ccc(F)cc3)C(F)(F)F)c2n1 (centres unmarked) [III-184] | 
22 | *** (greater than 20% Gcase activation) | +++ (Gcase activation greater than 60%) |  |  | Cc1cc(-c2cc(F)cc(C#N)c2)nc2c(C(=O)N[C@@H](C)C3CC3)cnn12 [III-128] | 
23 |  |  | *** (greater than 20% Gcase activation) | +++ (Gcase activation greater than 60%) | Cc1ncc(-c2cc(C)n3ncc(C(=O)N[C@H](C4CC4)C(F)(F)F)c3n2)cc1F [III-380] | 
24 |  |  | * (less than 10% Gcase activation) | + (less than 30% Gcase activation) | CCc1cc(-c2ccccn2)nc2c(C(=O)NC(C)(C)C(F)(F)F)cnn12 [III-407] | 
25 |  |  | * (less than 10% Gcase activation) | + (less than 30% Gcase activation) | Cc1cc(-c2cccc3ncn(C)c23)nc2c(C(=O)NC(C3CC3)C(F)(F)F)cnn12 (centres unmarked) [III-309] | 
26 | * (less than 10% Gcase activation) | +++ (Gcase activation greater than 60%) |  |  | COc1c(C#N)cccc1-c1cc(C)n2ncc(C(=O)NC(C3CC3)C(F)(F)F)c2n1 (centres unmarked) [III-141] | 

Row | Compound | Percent Gcase Activation, 0.1 μM Test Compound (test compound at 0.1 μM) | Percent Gcase Activation, 1 μM Test Compound (test compound at 1.0 μM) | Percent Gcase Activation, 0.1 μM Test Compound (0.1 μM test compound) | Percent Gcase Activation, 1 μM Test Compound (1 μM test compound) | other results
27 | Cc1cc(N2CCCN(CC(F)(F)F)C2=O)nc2c(C(=O)NC(C3CC3)C(F)(F)F)cnn12 (centres unmarked) [III-260] | * (less than 10% Gcase activation) | ++ (Gcase activation in the range of 30% up to 60%) |  |  | 
28 | Cc1cc(-c2cc(C)n3ncc(C(=O)N[C@@H](C)C4CC4)c3n2)sn1 [III-346] |  |  | ** (Gcase activation in the range of 10% up to 20%) | +++ (Gcase activation greater than 60%) | 
29 | Cc1cc(-c2cccnc2Cl)nc2c(C(=O)NC(C3CC3)C(F)(F)F)cnn12 (centres unmarked) [III-123] | ** (Gcase activation in the range of 10% up to 20%) | +++ (Gcase activation greater than 60%) |  |  | 
30 | Cc1cc(-c2ccc3c(c2)ncn3C)nc2c(C(=O)NC(C3CC3)C(F)(F)F)cnn12 (centres unmarked) [III-303] |  |  | ** (Gcase activation in the range of 10% up to 20%) | + (less than 30% Gcase activation) | 
31 | Cc1cc(-c2ccc(C#N)nc2)nc2c(C(=O)N[C@@H](C3CC3)C(F)(F)F)cnn12 [III-368] |  |  | ** (Gcase activation in the range of 10% up to 20%) | +++ (Gcase activation greater than 60%) | 
32 | Cc1cc(-c2ccc(F)cc2)nc2c(C(=O)N[C@H](C)C3CC3)cnn12 [III-86] | ** (Gcase activation in the range of 10% up to 20%) | +++ (Gcase activation greater than 60%) |  |  | 
33 | Cc1coc(-c2cc(C)n3ncc(C(=O)N[C@H](C4CC4)C(F)(F)F)c3n2)n1 [III-255] | ** (Gcase activation in the range of 10% up to 20%) | +++ (Gcase activation greater than 60%) |  |  | 
34 | Cc1cc(-c2cnccc2C(F)(F)F)nc2c(C(=O)NC(C)C(F)(F)F)cnn12 (centres unmarked) [III-284] |  |  | ** (Gcase activation in the range of 10% up to 20%) | +++ (Gcase activation greater than 60%) | 
35 | Cc1cc(-c2ccc3nc[nH]c3c2)nc2c(C(=O)NC(C3CC3)C(F)(F)F)cnn12 (centres unmarked) [III-307] |  |  | *** (greater than 20% Gcase activation) | ++ (Gcase activation in the range of 30% up to 60%) | 
36 | Cc1cc(-c2cccc3ncoc23)nc2c(C(=O)NC(C)(C)C(F)(F)F)cnn12 [III-219] | ** (Gcase activation in the range of 10% up to 20%) | ++ (Gcase activation in the range of 30% up to 60%) |  |  | 
37 | Cc1nc(-c2cc(C)n3ncc(C(=O)N[C@H](C)C(F)(F)F)c3n2)oc1C [III-345] |  |  | ** (Gcase activation in the range of 10% up to 20%) | +++ (Gcase activation greater than 60%) | 
